Test results reported in patent publication US20170121344A1 (Siga Technologies, Inc., priority 2009, published 2017).
pEC50: −log10 of the molar value.

Each compound was assayed on Dengue-2 (Strain New Guinea C) (assay: Viral yield assay against Dengue-2 in Vero cells). Conditions: Dengue virus, DENV2; viral yield assay, Vero cells, MOI 0.1, 48 hours post infection; read-out: Activity (EC50 in μM) DENV-2.
Assay type: cell-based, Dengue virus
Method: Compounds that were active in the primary screen were tested for activity in viral yield assays. […] Vero cells in 12-well plates were infected with dengue-2 virus at a multiplicity of infection (MOI) of 0.1, treated with compound (or DMSO as a control), incubated at 37° C., harvested 48 hours post infection and titered on Vero cells as described above. The EC50 was calculated through ExcelFit. Activities against other serotypes of dengue virus were determined in a similar way.

SMILES | EC50
Nc1c(C(=O)Nc2cccc(C(F)(F)F)c2)sc2nc3c(cc12)CCCCCC3 [Compound 370, 3-amino-N-(3-(trifluoromethyl)phenyl)-5,6,7,8,9,10-hexahydrocycloocta[b] thieno[3,2-e]pyridine-2-carboxamide] | < 5 µM
Cc1ccc(F)cc1NC(=O)c1sc2nc(-c3cccs3)ccc2c1N [Compound 463, 3-amino-N-(5-fluoro-2-methyl-phenyl)-6-(2-thienyl)thieno [2,3-b]pyridine-2-carboxamide] | < 5 µM
COc1cc(NC(=O)c2sc3nc(C)cc(C)c3c2C)cc(OC)c1OC [Compound 401, 3,4,6-trimethyl-N-(3,4,5-trimethoxyphenyl)thieno[2,3-b]pyridine-2-carboxamide] | > 25 µM
COc1ccc(-c2ccc3c(N)c(C(=O)Nc4cccc(C)c4)sc3n2)cc1OC [Compound 633, 3-amino-6-(3,4-dimethoxyphenyl)-N-(m-tolyl)thieno[2,3-b]pyridine-2-carboxamide] | < 5 µM
Cc1ccc(-c2ccc3c(N)c(C(=O)Nc4ccccc4C)sc3n2)cc1 [Compound 637, 3-amino-N-(o-tolyl)-6-(p-tolyl)thieno [2,3-b]pyridine-2-carboxamide] | < 5 µM
Nc1c(C(=O)Nc2cccc3ccccc23)sc2nc3c(cc12)CCCCC3 [Compound 374, 3-amino-N-(naphthalen-1-yl)-6,7,8,9-tetrahydro-5H-cyclohepta[b]thieno[3,2-e] pyridine-2-carboxamide] | < 5 µM
COc1cccc(-c2ccc3c(N)c(C(=O)Nc4cc(F)ccc4C)sc3n2)c1 [Compound 565, 3-amino-N-(5-fluoro-2-methyl-phenyl)-6-(3-methoxyphenyl)thieno[2,3-b] pyridine-2-carboxamide] | < 5 µM
Nc1c(C(=O)Nc2cc(Cl)ccc2Cl)sc2nc(-c3ccc(F)cc3)ccc12 [Compound 605, 3-amino-N-(2,5-dichlorophenyl)-6-(4-fluorophenyl)thieno[2,3-b]pyridine-2-carboxamide] | < 5 µM
Cc1ccc(F)cc1NC(=O)c1sc2nc(-c3ccc(F)cc3)ccc2c1N [Compound 623, 3-amino-N-(5-fluoro-2-methyl-phenyl)-6-(4-fluorophneyl)thieno[2,3-b]pyridine-2-carboxamide] | < 5 µM
Cc1ccc(NC(=O)c2sc3nc(-c4ccc(Cl)cc4)ccc3c2N)cc1C [Compound 348, 3-amino-6-(4-chlorophenyl)-N-(3,4-dimethyl-phenyl)thieno [2,3-b]pyridine-2-carboxamide] | < 5 µM
O=c1[nH]cnc2c1sc1nc(-c3cccs3)ccc12 [Compound 412, 7-(thiophen-2-yl)pyrido[3′,2′:4,5]thieno [3,2-d]pyrimidin-4(3H)-one] | 5 to 25 µM
COc1cccc(-c2ccc3c(N)c(C(=O)Nc4ccc(F)c(Cl)c4)sc3n2)c1 [Compound 526, 3-amino-N-(3-chloro-4-fluoro-phenyl)-6-(3-methoxyphenyl)thieno[2,3-b] pyridine-2-carboxamide] | < 5 µM
N#Cc1c(N)nc2sc(C(=O)Nc3ccccc3)c(N)c2c1-c1ccco1 [Compound 375, 3,6-diamino-5-cyano-4-(2-furyl)-N-phenyl-thieno[2,3-b]pyridine-2-carboxamide] | 5 to 25 µM
COc1ccc(C(F)(F)F)cc1NC(=O)c1sc2nc(-c3ccc(OC)c(OC)c3)ccc2c1N [Compound 531, 3-amino-6-(3,4-dimethoxyphenyl)-N-[2-methoxy-5-(trifluoromethyl)phenyl]thieno [2,3-b]pyridine-2-carboxamide] | < 5 µM
COc1cccc(-c2ccc3c(N)c(C(=O)Nc4ccc(Cl)cc4F)sc3n2)c1 [Compound 519, 3-amino-N-(4-chloro-2-fluoro-phenyl)-6-(3-methoxyphenyl)thieno[2,3-b]pyridine-2-carboxamide] | < 5 µM
Nc1c(C(=O)Nc2ccc(Br)cc2)sc2nc(-c3ccncc3)ccc12 [Compound 416, 3-amino-N-(4-bromophenyl)-6-(4-pyridyl)thieno[2,3-b]pyridine-2-carboxamide] | < 5 µM

Same assay, conditions: Dengue virus, Vero, 48 h, read-out: Activity (EC50 class) against Dengue-2 Virus in Vero cells

SMILES | pEC50
Nc1c(C(=O)Nc2ccccc2F)sc2nc3c(cc12)CCC3 [Compound 180, 3-Amino-6,7-dihydro-5H-cyclopenta[b]thieno[3,2-e]pyridine-2-carboxylic acid (2-fluoro-phenyl)-amide] | < 4.60
CC1(C)Cc2nc3sc4c(=O)[nH]cnc4c3cc2CS1 [Compound 232, 8,8-Dimethyl-8,9-dihydro-2H,6H-7,11-dithia-2,4,10-triaza-benzo[b]fluoren-1-one] | < 4.60
COc1ccc(CNC(=O)c2sc3nc4c(c(C(F)(F)F)c3c2N)CN(C(C)=O)CC4)cc1 [Compound 262, 6-Acetyl-3-amino-4-trifluoromethyl-5,6,7,8-tetrahydro-thieno[2,3-b][1,6]naphthyridine-2-carboxylic acid 4-methoxy-benzylamide] | < 4.60
CN1CCc2nc3sc(C(=O)NC(C)(C)C)c(N)c3cc2C1 [Compound 107, 3-Amino-6-methyl-5,6,7,8-tetrahydro-thieno[2,3-b][1,6]naphthyridine-2-carboxylic acid tart-butylamide] | 4.60 to 5.30

Same assay, conditions: Dengue virus; Vero cells, MOI 0.1, harvested 48 hours post infection; read-out: Activity (EC50 class) against Dengue-2 Virus in Vero cells

SMILES | pEC50
COCc1cc(C)nc2sc(C(=O)Nc3cccc4ccccc34)c(N)c12 [Compound 74, 3-Amino-4-methoxymethyl-6-methyl-thieno[2,3-b]pyridine-2-carboxylic acid naphthalen-1-ylamide] | 4.60 to 5.30
N#Cc1cc2c(N)c(C(=O)N(c3ccccc3)c3ccccc3)sc2nc1N [Compound 69, 3,6-Diamino-5-cyano-thieno[2,3-b]pyridine-2-carboxylic acid diphenylamide] | 4.60 to 5.30
CCOc1cccc(NC(=O)c2sc3nc4c(cc3c2N)CN(C)CC4)c1 [Compound 108, 3-Amino-6-methyl-5,6,7,8-tetrahydro-thieno[2,3-b][1,6]naphthyridine-2-carboxylic acid (3-ethoxy-phenyl)-amide] | 4.60 to 5.30
CCOC(=O)c1ccc(NC(=O)c2sc3nc4c(cc3c2N)CN(C(C)C)CC4)cc1 [Compound 25, 4-[(3-Amino-6-isopropyl-5,6,7,8-tetrahydro-thieno[2,3-b][1,6]naphthyridine-2-carbonyl)-amino]-benzoic acid ethyl ester] | > 5.30
Nc1c(C(=O)Nc2nnc(-c3ccccc3)s2)sc2nc3c(cc12)CCCC3 [Compound 53, 3-Amino-5,6,7,8-tetrahydro-thieno[2,3-b]quinoline-2-carboxylic acid (5-phenyl-[1,3,4]thiadiazol-2-yl)-amide] | > 5.30
NC(=O)c1sc2nc3c(c(-c4cccs4)c2c1N)CCCC3 [Compound 195, 3-Amino-4-thiophen-2-yl-5,6,7,8-tetrahydro-thieno[2,3-b]quinoline-2-carboxylic acid amide] | < 4.60
COc1ccc(NC(=O)c2sc3nc4c(cc3c2N)CCCCC4)cc1 [Compound 118, 3-Amino-6,7,8,9-tetrahydro-5H-1-thia-10-aza-cyclohepta[f]indene-2-carboxylic acid (4-methoxy-phenyl)-amide] | < 4.60
CN1CCc2nc3sc(C(=O)Nc4c(F)cccc4F)c(N)c3cc2C1 [Compound 277, 3-Amino-6-methyl-5,6,7,8-tetrahydro-thieno[2,3-b][1,6]naphthyridine-2-carboxylic acid (2,6-difluoro-phenyl)-amide] | < 4.60
C=CCc1c(C)nc2sc(C(=O)Nc3cccc(Cl)c3)c(N)c2c1C [Compound 96, 5-Allyl-3-amino-4,6-dimethyl-thieno[2,3-b]pyridine-2-carboxylic acid (3-chloro-phenyl)-amide] | 4.60 to 5.30
COCc1cc(C)nc2sc(C(=O)Nc3ccccc3Cl)c(N)c12 [Compound 185, 3-Amino-4-methoxymethyl-6-methyl-thieno[2,3-b]pyridine-2-carboxylic acid (2-chloro-phenyl)-amide] | < 4.60
CN1CCc2nc3sc(C(=O)Nc4c(Cl)cccc4Cl)c(N)c3cc2C1 [Compound 109, 3-Amino-6-methyl-5,6,7,8-tetrahydro-thieno[2,3-b][1,6]naphthyridine-2-carboxylic acid (2,6-dichloro-phenyl)-amide] | 4.60 to 5.30
COC(=O)c1cc(OC)c(OC)cc1NC(=O)c1sc2nc3c(cc2c1N)CN(C)CC3 [Compound 263, 2-[(3-Amino-6-methyl-5,6,7,8-tetrahydro-thieno[2,3-b][1,6]naphthyridine-2-carbonyl)-amino]-4,5-dimethoxy-benzoic acid methyl ester] | < 4.60
CCc1nc2sc(C(=O)Nc3cccc(C(F)(F)F)c3)c(N)c2cc1C [Compound 93, 3-Amino-6-ethyl-5-methyl-thieno[2,3-b]pyridine-2-carboxylic acid (3-trifluoromethyl-phenyl)-amide] | 4.60 to 5.30
C=CCc1c(C)nc2sc(C(=O)Nc3ccc(Br)cc3)c(N)c2c1C [Compound 216, 5-Allyl-3-amino-4,6-dimethyl-thieno[2,3-b]pyridine-2-carboxylic acid (4-bromo-phenyl)-amide] | < 4.60
Nc1c(C(=O)Nc2nccs2)sc2nc3c(c(-c4ccco4)c12)CCCC3 [Compound 86, 3-Amino-4-furan-2-yl-5,6,7,8-tetrahydro-thieno[2,3-b]quinoline-2-carboxylic acid thiazol-2-ylamide] | 4.60 to 5.30
Cc1nc2c(sc3nc4c(cc32)COC(C)(C)C4)c(=O)n1CC1CCCO1 (stereo not shown) [Compound 236, 3,8,8-Trimethyl-2-(tetrahydro-furan-2-ylmethyl)-8,9-dihydro-2H,6H-7-oxa-11-thia-2,4,10-triaza-benzo[b]fluoren-1-one] | < 4.60
N#Cc1cc2c(N)c(C(=O)Nc3ccc(S(N)(=O)=O)cc3)sc2nc1N [Compound 136, 3,6-Diamino-5-cyano-thieno[2,3-b]pyridine-2-carboxylic acid (4-sulfamoyl-phenyl)-amide] | < 4.60
